# Results: ChEMBL document CHEMBL1139505, “Synthesis and structure-activity-relationships of 1H-imidazo[4,5-c]quinolines that induce interferon production” (2005)
# System: not listed separately
# Assay: Minimum effective concentration required to induce interferon (IFN) production in human peripheral blood mononuclear cells (hPBMC)
# Type: functional
# Settings: read-out: MEC
row,Compound,minimal effective concentration
1,CC(C)Cn1cnc2c(N)nc3c(O)cccc3c21,1 µg/mL
2,CCCCc1nc2c(N)nc3ccccc3c2n1CC(C)C,0.01 µg/mL
3,CC(O)Cn1cnc2c(N)nc3ccccc3c21 (stereo unspecified),0.5 µg/mL
4,CCCCCCCc1nc2c(N)nc3ccccc3c2n1CC(C)C,1 µg/mL
5,CCCCCn1cnc2c(N)nc3ccccc3c21,0.5 µg/mL
6,CC(C)Cn1c(CCc2ccccc2)nc2c(N)nc3ccccc3c21,1 µg/mL
7,CCCc1nc2c(N)nc3ccccc3c2n1CC(C)C,0.05 µg/mL
8,CCCCCCn1cnc2c(N)nc3ccccc3c21,0.5 µg/mL
9,CCCn1cnc2c(N)nc3ccccc3c21,0.5 µg/mL
10,CCc1nc2c(N)nc3ccccc3c2n1CC(C)(C)O,0.05 µg/mL
11,COc1ccc2c(c1)nc(N)c1ncn(CC(C)C)c12,1 µg/mL
12,CC(C)(O)Cn1cnc2c(N)nc3ccccc3c21,0.5 µg/mL
13,CC(C)Cn1c(COc2ccccc2)nc2c(N)nc3ccccc3c21,0.1 µg/mL
14,Nc1nc2ccccc2c2c1ncn2CCc1ccccc1,0.5 µg/mL
15,CC(C)Cn1cnc2c(N)nc3cc(O)ccc3c21,0.5 µg/mL
16,Cc1nc2c(N)nc3ccccc3c2n1CC(C)C,0.05 µg/mL
17,CCCCCCCn1cnc2c(N)nc3ccccc3c21,0.5 µg/mL
18,Nc1nc2ccccc2c2c1ncn2CCCCc1ccccc1,0.1 µg/mL

row,Compound,minimal effective concentration
1,CCCCc1nc2c(N)nc3ccccc3c2n1-c1ccccc1,0.5 µg/mL
2,CCc1nc2c(N)nc3ccccc3c2n1CC(C)C,0.05 µg/mL
3,CCCCCc1nc2c(N)nc3ccccc3c2n1CC(C)C,0.05 µg/mL
4,Cc1nc2c(N)nc3ccccc3c2n1CC(C)(C)O,0.05 µg/mL
5,CC(C)Cn1c(Cc2ccccc2)nc2c(N)nc3ccccc3c21,0.05 µg/mL
6,CCCCn1cnc2c(N)nc3ccccc3c21,0.5 µg/mL
7,Nc1nc2ccccc2c2c1ncn2CC(O)CO (stereo unspecified),5 µg/mL
8,CC(C)Cn1cnc2c(N)nc3ccccc3c21 [IMIQUIMOD],0.5 µg/mL
9,CC(C)n1cnc2c(N)nc3ccccc3c21,0.5 µg/mL
10,Cn1cnc2c(N)nc3ccccc3c21,0.5 µg/mL
11,Nc1nc2ccccc2c2c1ncn2CCO,0.5 µg/mL
12,CC(C)Cc1nc2c(N)nc3ccccc3c2n1CC(C)(C)O,0.01 µg/mL
13,Nc1[nH]c2ccccc2c2ncnc1-2,0.5 µg/mL
14,CCn1cnc2c(N)nc3ccccc3c21,0.5 µg/mL
15,CCCCCCc1nc2c(N)nc3ccccc3c2n1CC(C)C,0.5 µg/mL
16,Nc1nc2ccccc2c2c1ncn2Cc1ccccc1,0.1 µg/mL
17,Cc1ccc2c(c1)nc(N)c1ncn(CC(C)C)c12,0.5 µg/mL

# Organism: Homo sapiens
# Assay: Minimum effective concentration required to induce interferon (IFN) production in human peripheral blood mononuclear cells (hPBMC); NI = no induction at highest concentration (5.0 ug/mL)
# Type: functional
# Settings: not given
row,Compound,MEC
1,COc1cccc2c1nc(N)c1ncn(CC(C)C)c12,No induction
2,Cc1ccc2nc(N)c3ncn(CC(C)C)c3c2c1,No induction
3,COc1nc2c(N)nc3ccccc3c2n1CC(C)C,No induction
4,CC(C)Cn1c(-c2ccccc2)nc2c(N)nc3ccccc3c21,No induction
5,CC(C)Cn1c(Oc2ccccc2)nc2c(N)nc3ccccc3c21,No induction
6,CNc1nc2ccccc2c2c1ncn2CC(C)C,No induction
7,CC(C)Cn1cnc2c(O)nc3ccccc3c21,No induction
8,CC(C)(C)n1cnc2c(N)nc3ccccc3c21,No induction
9,CC(C)Cn1c(C(F)(F)F)nc2c(N)nc3ccccc3c21,No induction
10,CC(C)Cn1cnc2c(NC(=O)c3ccccc3)nc3ccccc3c21,No induction
11,CC(C)Cn1cnc2c(N)nc3ccc(Cl)cc3c21,No induction
12,Cc1cccc2c1nc(N)c1ncn(CC(C)C)c12,No induction
13,CC(C)Cn1cnc2c(N)nc3ccc([N+](=O)[O-])cc3c21,No induction
14,COc1ccc2nc(N)c3ncn(CC(C)C)c3c2c1,No induction
15,CC(C)Cn1cnc2cnc3ccccc3c21,No induction
16,Nc1nc2ccccc2c2c1ncn2CCCc1ccccc1,No induction
17,COc1nc2ccccc2c2c1ncn2CC(C)C,No induction
18,Nc1nc2ccccc2c2c1ncn2-c1ccccc1,No induction
19,CC(C)Cn1cnc2c(N)nc3ccc(Br)cc3c21,No induction
20,CC(C)Cn1cnc2c(N)nc3ccc(N)cc3c21,No induction
21,CCCCCCCCCCCCCCCCn1cnc2c(N)nc3ccccc3c21,No induction
22,CSc1nc2ccccc2c2c1ncn2CC(C)C,No induction
23,CCCCCCCCn1cnc2c(N)nc3ccccc3c21,No induction
24,CC(C)Cn1cnc2c(Cl)nc3ccccc3c21,No induction
25,Cc1cccc2nc(N)c3ncn(CC(C)C)c3c12,No induction
26,CC(C)Cn1cnc2c(N)nc3ccc(O)cc3c21,No induction
